# Read-outs that look alike come from different tables or passages of the source.
# Legend:
# uterine OT receptors = target: T1, uterine OT receptors (Rattus norvegicus, UniProt P70536); assay: Radioligand binding assay: competition of [3H]oxytocin binding to a crude membrane preparation of uteri from DES-treated rats; settings: 1 nM [3H]OT; 60 minutes; 22° C.; pH 7.4; rat uterus membranes
# T1 construct: from tissue; host or cells: rat uterus (DES-treated), crude membrane preparation
# T1 sequence (P70536 1-388): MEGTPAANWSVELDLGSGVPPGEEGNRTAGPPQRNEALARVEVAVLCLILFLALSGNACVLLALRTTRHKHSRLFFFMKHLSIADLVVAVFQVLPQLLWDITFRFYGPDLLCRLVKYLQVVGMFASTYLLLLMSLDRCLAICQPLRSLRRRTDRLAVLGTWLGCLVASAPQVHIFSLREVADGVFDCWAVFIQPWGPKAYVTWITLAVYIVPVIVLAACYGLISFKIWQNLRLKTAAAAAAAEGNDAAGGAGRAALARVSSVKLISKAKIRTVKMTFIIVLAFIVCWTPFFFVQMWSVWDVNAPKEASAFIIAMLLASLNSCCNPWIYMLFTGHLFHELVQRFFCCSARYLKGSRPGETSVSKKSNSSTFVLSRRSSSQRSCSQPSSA
# Experimental: The high affinity binding of [^3 H] Oxytocin (OT)([tyrosyl, 3,5-[^3 H]OT; 30-60 Ci/mmol; New England Nuclear. Boston, Mass.) to uterine OT receptors was based on an assay (Fuchs, A-R; Fuchs, F; Soloff, MS. 1985 J. Clin. Endocrinol. Metab. 60:37) using a crude membrane preparation of uteri taken from diethylstilbestrol dipropionate (DES)-treated (0.3 mg/kg, ip; 18-24) rats. Competition studies were conducted at equilibrium (60 minutes; 22° C.) using 1 nM[^3 H]OT in the following assay buffer: 50 mM Tris-HCl, 5 mM MgCl2, and 0.1% BSA, pH 7.4. Nonspecific binding (10% of the total binding) was determined using 1 μM unlabeled OT and the binding reaction was terminated by filtration through glass fiber filters using a cell harvester (model 7019, Skatron, Inc., Sterling, Va.). IC50 (the concentration of tested compound that inhibits 50% of OT) was reported, unless otherwise noted.
# IC50 values were determined for both [^3 H]OT and [^3 H]AVP binding assays by linear regression of the relation log concentration of compound vs. percent inhibition of specific binding.
# [1] = cited from earlier work
# premature labor = settings: compared with ritodrine; cited from earlier work
smiles,measurement,setting,value
O=C(Nc1ccc(CC(=O)N2CCC3(C=Cc4ccccc43)CC2)cc1)c1ccc2[nH]ccc2c1 [Example 15],IC50,uterine OT receptors,0.31 µM
CC(C)(C)NCC(O)c1cc(O)cc(O)c1 (stereo not drawn) [terbutaline],side effects (in words),"[1]; tocolytic use, in the mother",side effects similar to those of ritodrine
CC(NCCc1ccc(O)cc1)C(O)c1ccc(O)cc1 (stereo not drawn) [Ritodrine],side effects (in words),"[1]; tocolytic use, in the mother","causes a number of cardiovascular and metabolic side effects in the mother, including tachycardia, increased renin secretion, hyperglycemia (and reactive hypoglycemia in the infant)"
O=C(Cc1ccc2c(c1)OCO2)N1CCC2(C=Cc3ccccc32)CC1 [Example 10],IC50,uterine OT receptors,3.7 µM
O=S(=O)([O-])[O-].[Mg+2] [Magnesium sulfate],toxicity at plasma concentrations above the therapeutic range (in words),[1]; above 4 to 8 mg/dL plasma,"can cause inhibition of cardiac conduction and neuromuscular transmission, respiratory depression and cardiac arrest"
same,therapeutic range of plasma concentrations,[1]; plasma,4 to 8 mg/dL
O=C(Nc1ccc(CC(=O)N2CCC3(C=Cc4ccccc43)CC2)cc1)c1ccc2[nH]cnc2c1 [Example 12],IC50,uterine OT receptors,0.15 µM
O=C(CCc1c[nH]cn1)Nc1ccc(CC(=O)N2CCC3(CCc4ccccc43)CC2)cc1 [Example 14],IC50,uterine OT receptors,0.17 µM
CCO [Ethanol],effectiveness in preventing premature labor (in words),premature labor,as effective as ritodrine in preventing premature labor
same,reduction in the incidence of fetal respiratory distress (in words),premature labor,does not produce a corresponding reduction in the incidence of fetal respiratory distress that administration of ritodrine does
CC(C)(C)NCC(O)c1ccc(O)c(CO)c1 (stereo not drawn) [albuterol],side effects (in words),[1]; in vivo,side effects similar to those of ritodrine
O=C(Nc1ccc(CC(=O)N2CCC3(C=Cc4ccccc43)CC2)cc1)c1ccc2[nH]nnc2c1 [Example 16],IC50,uterine OT receptors,0.52 µM

# — patent US5670509A, “Tocolytic oxytocin receptor antagonists” (priority 1995, dated 1997)
